In patent US20260325538A1, “THERAPY” (priority 2023, published 2026):

System: Klebsiella pneumoniae K66-45 (NDM-1)
Assay: Checkerboard MIC, fixed ratio of sBLI to antibiotic (Examples 3-6)
Format: cell-based
Conditions: caMHB 29.4 μM Zn2+
Description: The antibiotics and serine β-lactamase-inhibitors (sBLIs) were purchased from the following suppliers: Ceftazidime (CAZ): Sigma-Aldrich; Cefepime (FEP): Sigma-Aldrich; Cefpodoxime (CEFP): MedChemExpress; Sulbactam (SUL): Sigma-Aldrich Avibactam (AVI): Biosynth; Vaborbactam (VAB): ABCR; Tazobactam (TAZ): Sigma-Aldrich; Taniborbactam (TAN): Sigma-Aldrich.
In each of Examples 3-23, the compound of Example 26 of WO 2018/033719 was employed as the zinc chelator. The following abbreviations are used in these examples: sBLI means serine-β-lactamase inhibitor; CFU means colony-forming unit, which is a group of microbes that grows from a single cell on a petri plate; DMSO means dimethyl sulfoxide; MHB means Mueller-Hinton broth; caMHB means cation-adjusted Mueller-Hinton broth; MIC means minimum inhibitory concentration—the lower the MIC, the more efficient the combination against the respective bacterial strain.
General Protocol Used in Examples 3-10 Employing a Fixed Ratio of sBLI to Antibiotic within Each Experiment:
Antimicrobial susceptibility testing (AST) by broth microdilution (MIC determination) was performed according to The European Committee on Antimicrobial Susceptibility Testing (EUCAST) guidelines (see Reading guide for broth microdilution Version 5.0, 2024: https://www.eucast.org).
Sterile clear round bottom polystyrene (non-treated) 96-well microplates (Corning 3788) were used for making serial two-fold dilutions of the antibiotic and the serine sBLI in cation-adjusted Mueller Hinton II broth (caMHB; Thermo Scientific, T3462, containing 29.4 μM Zn^2+), across the columns of the microtiter plate ([…]; columns 1-12). The checkerboard plates were all made by keeping the sBLI at a fixed ratio relative to antibiotic (absolute concentrations of each, in μg/mL) to all wells containing sample in each plate. Additionally, a set of samples were included in each test plate, where the zinc chelator was added, at various fixed concentrations, of 16 μg/mL, 8 μg/mL and/or 4 μg/mL (as specified in each Example). All sample wells contained growth medium (caMHB), and inoculated bacteria at a final inoculum between 3-7×10^5 CFU/mL. […] Synergy for the triple combination (antibiotic, sBLI, and zinc chelator) was defined as when the MIC in rows containing the zinc chelator in combination with antibiotic and sBLI (triple combination), was lower than for rows containing antibiotic and sBLI (double combination; no zinc chelator).
(§1) Two technical replicates were performed for each sample. An X in rows 1-8 in the table indicates bacterial growth, while a blank cell indicates no growth. Concentrations (μg/mL) of CAZ are given in row 0a. Concentrations (μg/mL) of AVI are given in row 0b. The zinc chelator was added in fixed concentrations, at 16 μg/mL in rows 3 and 4, at 8 μg/mL in rows 5 and 6, and 4 μg/mL in rows 7 and 8. As a control, the effect of CAZ and AVI (no zinc chelator) was tested (rows 1 and 2). All wells contained bacterial growth medium (caMHB, 29.4 μM Zn^2+) and were inoculated with the test bacterium. The grey cells indicate the CAZ MIC.
as §1, with “FEP” for “CAZ”
Two technical replicates were performed for each sample. An X in rows 1-8 in the table indicates bacterial growth, while a blank cell indicates no growth. Concentrations (μg/mL) of FEP are given in row 0a. Concentrations (μg/mL) of SUL are given in row 0b. […]

SMILES: CN(C[C@H](O)[C@@H](O)[C@H](O)[C@H](O)CO)C(=O)c1ccc(CN(Cc2ccccn2)Cc2ccccn2)nc1 [zinc chelator]
- synergy with the zinc chelator (zinc chelator 4 μg/mL, with CAZ and AVI (fixed ratio)): variable synergy
- synergy with the zinc chelator (zinc chelator 4 μg/mL, with FEP and AVI (fixed ratio)): variable synergy
- synergy with the zinc chelator (zinc chelator 8 μg/mL, with CAZ and AVI (fixed ratio)): Synergy
- synergy with the zinc chelator (zinc chelator 8 μg/mL, with FEP and AVI (fixed ratio)): Synergy
- synergy with the zinc chelator (zinc chelator 8 μg/mL, with FEP and SUL (fixed ratio)): Synergy
- synergy with the zinc chelator (zinc chelator 8 μg/mL, with FEP and TAZ (fixed ratio)): Synergy
- synergy with the zinc chelator (zinc chelator 16 μg/mL, with CAZ and AVI (fixed ratio)): Synergy
- synergy with the zinc chelator (zinc chelator 16 μg/mL, with FEP and AVI (fixed ratio)): Synergy
- synergy with the zinc chelator (zinc chelator 16 μg/mL, with FEP and SUL (fixed ratio)): Synergy
- synergy with the zinc chelator (zinc chelator 16 μg/mL, with FEP and TAZ (fixed ratio)): Synergy
